The values below come from patent US20250368666A1, “INDAZOLE COMPOUNDS” (TYRA BIOSCIENCES, INC., priority 2022, published 2025).

The test system of test [1] is KG-1 cell line (FGFR 1-fusion). The test is described as follows: Cancer cell line cell viability assay (Cell Titer-Glo), 72 hr. The test is classed as cell-based. Conditions: Homo sapiens, KG-1, KG-1 cell line (FGFR1-fusion). The procedure, abridged:
(§1)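 Intracellular ATP was measured by Cell Titer-Glo 2.0 luminescence after cells were incubated with compound dilutions (top 3 μM, 4-fold, 9 doses). Values were expressed relative to DMSO-treated cells and IC50 was calculated from a variable-slope dose-response curve.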

Test [2] deals with KATO-III cell line (FGFR2 amplification). The description is as above. Conditions: Homo sapiens, KATO III. The test is classed as cell-based. In outline:
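Luminescent ATP read-out (Cell Titer-Glo 2.0) after compound exposure, normalised to DMSO-only wells. Dosing: 9 concentrations, 4-fold steps, top 3 μM, triplicates. IC50 derived by log(inhibitor) vs. response 4-parameter fit.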

In test [3] the test system is RT112/84 cell line (FGFR3-fusion). The description is as above. The test is classed as cell-based. Conditions: Homo sapiens, RT112/84, RT112/84 cell line (FGFR3-fusion). In outline:
as §1

Another test concerns the target T1, FGFR3 (Homo sapiens, UniProt P22607).
T1 construct: made in house; host or cells: E. coli (BL21-derived), T7 phage
The test is described as follows: Kinase binding assay (kinase-tagged T7 phage, affinity beads, qPCR), Kd. Conditions: read-out: FGFR3 (Kd nM). The procedure, abridged: (§2)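 Phage-tagged kinase capture on small-molecule affinity resin, compound competition, qPCR quantitation; Kd from Levenberg-Marquardt Hill fit.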
For orientation: Real-time PCR tracks product formation cycle by cycle.

Another test deals with T2, FGFR2 (Homo sapiens, UniProt P21802).
T2 construct: made in house; host or cells: E. coli (BL21-derived), T7 phage
Described as above. Conditions: read-out: FGFR2 (Kd nM). In outline: as §2

The next test concerns the target T3, FGFR3 (V555M) (Homo sapiens, UniProt P22607, V555M).
T3 construct: made in house; host or cells: E. coli (BL21-derived), T7 phage
The test is described as above. Conditions: V555M mutant; read-out: FGFR3 (V555M) (Kd nM). In outline:
as §2

For the next test, the target named is T4, FGFR1 (Homo sapiens, UniProt P11362).
T4 construct: made in house; host or cells: E. coli (BL21-derived), T7 phage
The test is described as above. Conditions: read-out: FGFR1 (Kd nM). The procedure, abridged:
as §2

The target in a further test is T5, FGFR4 (Homo sapiens, UniProt P22455).
T5 construct: made in house; host or cells: E. coli (BL21-derived), T7 phage
The description is as above. Conditions: read-out: FGFR4 (Kd nM). The procedure, abridged:
as §2

For test [4], the system named is MDA-MB-453 cell line (FGFR4-Y367C). The test is described as follows: Cancer cell line cell viability assay (Cell Titer-Glo), 120 hr. Conditions: Homo sapiens. The test is classed as cell-based. In outline: as §1
The test system of test [5] is HuH7 cell line (FGF19 amplification). Described as above. The test is classed as cell-based. Conditions: Homo sapiens, Huh-7. The procedure, abridged:
as §1

As a reminder, the IC50 is the concentration that gives 50% inhibition. A lower IC50 goes with greater potency in that assay. Broadly, the Kd is the free concentration of one partner at which half of the binding sites on the other are occupied at equilibrium, for simple one-to-one binding.

T3 sequence (P22607 23-806 V555M): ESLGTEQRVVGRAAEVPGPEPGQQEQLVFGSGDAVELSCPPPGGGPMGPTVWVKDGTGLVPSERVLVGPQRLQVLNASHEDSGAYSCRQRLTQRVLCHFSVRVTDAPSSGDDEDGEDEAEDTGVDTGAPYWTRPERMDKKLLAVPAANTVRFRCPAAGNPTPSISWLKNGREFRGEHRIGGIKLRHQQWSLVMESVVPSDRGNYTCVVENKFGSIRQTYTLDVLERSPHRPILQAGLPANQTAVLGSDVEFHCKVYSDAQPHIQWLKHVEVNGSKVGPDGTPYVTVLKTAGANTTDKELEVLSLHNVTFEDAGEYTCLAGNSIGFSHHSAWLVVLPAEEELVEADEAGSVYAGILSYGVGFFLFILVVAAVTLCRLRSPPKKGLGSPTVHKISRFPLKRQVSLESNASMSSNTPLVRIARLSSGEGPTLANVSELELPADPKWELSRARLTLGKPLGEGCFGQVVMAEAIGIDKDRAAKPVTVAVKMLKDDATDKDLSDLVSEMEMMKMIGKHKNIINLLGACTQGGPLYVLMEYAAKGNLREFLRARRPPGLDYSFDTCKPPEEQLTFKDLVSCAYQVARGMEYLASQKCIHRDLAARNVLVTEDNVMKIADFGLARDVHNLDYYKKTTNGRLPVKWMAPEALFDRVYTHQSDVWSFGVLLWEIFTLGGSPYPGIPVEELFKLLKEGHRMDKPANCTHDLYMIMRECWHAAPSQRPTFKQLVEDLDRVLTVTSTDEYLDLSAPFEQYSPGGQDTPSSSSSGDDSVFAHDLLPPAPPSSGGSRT
T1 sequence (P22607 23-806): as the sequence (P22607 23-806 V555M) above, with M533V counted along it
T2 sequence (P21802 22-821): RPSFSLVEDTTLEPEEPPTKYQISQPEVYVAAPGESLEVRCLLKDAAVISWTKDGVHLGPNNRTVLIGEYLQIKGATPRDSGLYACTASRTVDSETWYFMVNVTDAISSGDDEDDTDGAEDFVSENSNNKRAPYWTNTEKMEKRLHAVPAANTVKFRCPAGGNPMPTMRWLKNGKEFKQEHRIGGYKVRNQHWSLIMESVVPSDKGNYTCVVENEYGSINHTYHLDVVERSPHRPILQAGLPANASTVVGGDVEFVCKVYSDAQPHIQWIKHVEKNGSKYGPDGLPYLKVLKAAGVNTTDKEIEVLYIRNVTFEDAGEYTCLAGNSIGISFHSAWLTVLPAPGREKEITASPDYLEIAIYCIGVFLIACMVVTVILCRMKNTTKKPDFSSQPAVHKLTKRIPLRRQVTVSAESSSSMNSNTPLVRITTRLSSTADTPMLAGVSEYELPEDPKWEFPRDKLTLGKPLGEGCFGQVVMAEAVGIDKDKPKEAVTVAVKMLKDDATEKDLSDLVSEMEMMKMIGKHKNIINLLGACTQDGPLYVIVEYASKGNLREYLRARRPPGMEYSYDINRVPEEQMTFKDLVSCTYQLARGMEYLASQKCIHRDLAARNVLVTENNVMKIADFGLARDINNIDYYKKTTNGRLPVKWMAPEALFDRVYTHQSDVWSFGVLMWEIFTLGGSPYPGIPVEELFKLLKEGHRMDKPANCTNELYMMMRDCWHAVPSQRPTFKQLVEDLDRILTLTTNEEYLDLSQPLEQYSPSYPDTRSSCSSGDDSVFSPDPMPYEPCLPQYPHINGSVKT
T4 sequence (P11362 22-822): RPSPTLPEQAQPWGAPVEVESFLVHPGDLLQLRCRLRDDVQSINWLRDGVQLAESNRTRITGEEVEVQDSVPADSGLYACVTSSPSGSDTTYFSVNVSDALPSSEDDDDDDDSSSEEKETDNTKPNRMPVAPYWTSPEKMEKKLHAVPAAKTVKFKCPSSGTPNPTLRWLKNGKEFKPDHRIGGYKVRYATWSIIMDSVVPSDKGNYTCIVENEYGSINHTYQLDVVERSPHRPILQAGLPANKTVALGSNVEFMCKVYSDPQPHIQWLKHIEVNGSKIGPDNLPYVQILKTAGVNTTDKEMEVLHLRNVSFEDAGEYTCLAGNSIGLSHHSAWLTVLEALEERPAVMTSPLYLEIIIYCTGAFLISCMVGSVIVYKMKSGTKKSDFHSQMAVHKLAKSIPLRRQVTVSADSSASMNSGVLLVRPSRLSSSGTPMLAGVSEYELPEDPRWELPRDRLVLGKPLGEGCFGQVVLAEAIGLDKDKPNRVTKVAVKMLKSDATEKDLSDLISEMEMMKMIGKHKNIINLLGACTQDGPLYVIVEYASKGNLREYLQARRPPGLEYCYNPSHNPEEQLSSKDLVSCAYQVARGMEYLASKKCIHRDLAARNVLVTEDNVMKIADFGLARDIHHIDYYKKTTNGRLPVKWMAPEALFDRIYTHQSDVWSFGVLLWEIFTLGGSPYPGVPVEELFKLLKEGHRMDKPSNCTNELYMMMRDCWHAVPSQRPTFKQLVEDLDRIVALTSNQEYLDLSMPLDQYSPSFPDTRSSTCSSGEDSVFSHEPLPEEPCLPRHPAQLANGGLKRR
T5 sequence (P22455 22-802): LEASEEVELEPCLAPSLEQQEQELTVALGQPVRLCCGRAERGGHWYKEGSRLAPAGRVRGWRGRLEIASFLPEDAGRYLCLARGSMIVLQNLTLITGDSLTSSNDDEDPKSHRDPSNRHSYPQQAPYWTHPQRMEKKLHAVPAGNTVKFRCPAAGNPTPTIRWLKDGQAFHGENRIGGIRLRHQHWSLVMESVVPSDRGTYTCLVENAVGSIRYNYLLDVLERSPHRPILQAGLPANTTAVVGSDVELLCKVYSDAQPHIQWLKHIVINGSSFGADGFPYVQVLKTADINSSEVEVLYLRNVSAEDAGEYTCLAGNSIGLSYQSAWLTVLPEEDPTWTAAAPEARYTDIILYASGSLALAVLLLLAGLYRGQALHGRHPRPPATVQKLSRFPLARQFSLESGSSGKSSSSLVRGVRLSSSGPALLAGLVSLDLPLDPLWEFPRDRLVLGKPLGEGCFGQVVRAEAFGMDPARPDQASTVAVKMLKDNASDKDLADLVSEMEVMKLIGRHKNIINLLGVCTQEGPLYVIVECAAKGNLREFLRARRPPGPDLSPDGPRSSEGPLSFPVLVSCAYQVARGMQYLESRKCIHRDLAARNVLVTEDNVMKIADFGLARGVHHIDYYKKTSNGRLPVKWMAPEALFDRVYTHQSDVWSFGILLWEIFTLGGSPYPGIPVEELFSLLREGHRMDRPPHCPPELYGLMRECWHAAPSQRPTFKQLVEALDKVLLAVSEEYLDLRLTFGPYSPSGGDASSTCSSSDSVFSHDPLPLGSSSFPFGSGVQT

With `COc1cc2[nH]nc(-c3cnc(N4CC(C)(NCC5CC5)C4)c(C#N)c3)c2cc1O[C@H](C)c1c(Cl)cncc1Cl` [Example 14, 2-[3-(cyclopropylmethylamino)-3-methyl-azetidin-1-yl]-5-[5-[(1R)-1-(3,5-dichloro-4-pyridyl)ethoxy]-6-methoxy-1H-indazol-3-yl]pyridine-3-carbonitrile], the IC50 in test [1] fell in the range of 0.05 to 0.2 µM; in [2], 0.05 to 0.2 µM; in test [3], 0.0001 to 0.05 µM; in [4], 0.0001 to 0.05 µM; in test [5], 0.0001 to 0.05 µM. In addition, the Kd at FGFR3, on FGFR2, on FGFR3 (V555M), on FGFR1 and on FGFR4 was 1 to 50 nM throughout.
Regarding `C[C@@H](Oc1ccc2[nH]nc(-c3cnc(N4CC(C)(CS(C)(=O)=O)C4)c(F)c3)c2c1)c1c(Cl)cncc1Cl` [Example 199, (R)-5-(1-(3,5-dichloropyridin-4-yl)ethoxy)-3-(5-fluoro-6-(3-methyl-3-((methyl-sulfonyl)meth-yl)azetidin-1-yl)pyridin-3-yl)-1H-indazole], the IC50 in [1] lay in the range of 0.05 to 0.2 µM; in test [2] it was 0.05 to 0.2 µM; in test [3] it was 0.0001 to 0.05 µM; in test [4], 0.0001 to 0.05 µM; in test [5], 0.0001 to 0.05 µM. Moreover, the Kd at FGFR3, at FGFR2, at FGFR3 (V555M), at FGFR1 and at FGFR4 was 1 to 50 nM throughout.
Consider `C[C@@H]1[C@@H](CS(C)(=O)=O)CN1c1ccc(-c2n[nH]c3ccc(O[C@H](C)c4c(Cl)cncc4Cl)cc23)cn1` [Example 204, 5-((R)-1-(3,5-dichloropyridin-4-yl)ethoxy)-3-(6-((2R,3S)-2-methyl-3-((methyl-sulfonyl)meth-yl)azetidin-1-yl)pyridin-3-yl)-1H-indazole], for which the IC50 in [1] is 0.05 to 0.2 µM; in test [2] it was 0.0001 to 0.05 µM; in [3], 0.0001 to 0.05 µM; in [4], 0.05 to 0.2 µM; in test [5], 0.0001 to 0.05 µM. The Kd on FGFR3, on FGFR2, on FGFR3 (V555M), at FGFR1 and at FGFR4 was 1 to 50 nM each time.
With `COc1cc2[nH]nc(-c3cnc(N4CC(C)(N5CCOCC5)C4)c(C#N)c3)c2cc1O[C@H](C)c1c(Cl)cncc1Cl` [Example 16, (R)-5-(5-(1-(3,5-dichloropyridin-4-yl)ethoxy)-6-methoxy-1H-indazol-3-yl)-2-(3-methyl-3-morpholinoazetidin-1-yl)nicotinonitrile], the IC50 in [1] was in the range of 0.05 to 0.2 µM; in [2] it was 0.05 to 0.2 µM; in test [3], 0.0001 to 0.05 µM; in test [4] it was 0.0001 to 0.05 µM; in test [5], 0.0001 to 0.05 µM. Also, the Kd on FGFR3, on FGFR2, at FGFR3 (V555M), at FGFR1 and on FGFR4 was 1 to 50 nM throughout.
Regarding `COc1cc2[nH]nc(-c3cnc(N4CC(C)(CP(C)(C)=O)C4)c(C#N)c3)c2cc1O[C@H](C)c1c(Cl)cncc1Cl` [Example 53, (R)-5-(5-(1-(3,5-Dichloropyridin-4-yl)ethoxy)-6-methoxy-1H-indazol-3-yl)-2-(3-((dimethylphosphoryl)methyl)-3-methylazetidin-1-yl)nicotinonitrile], the IC50 in test [1] lay in the range of 0.2 to 1 µM; in [2], 0.05 to 0.2 µM; in [3], 0.05 to 0.2 µM; in test [4], 0.0001 to 0.05 µM; in test [5] it was 0.0001 to 0.05 µM. Further, the Kd at FGFR3, on FGFR2, at FGFR3 (V555M), at FGFR1 and on FGFR4 was 1 to 50 nM each time.
